Source: ChEMBL document CHEMBL1201862, “PubChem BioAssay data set” (2004)
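A five-concentration, 48-hour dose response in 96-well plates underlies each endpoint, interpolated linearly between surrounding concentrations. Here, GI50 denotes the concentration required for 50% inhibition of growth.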 Activity calls are given as the source filed them. Cut-off read from the data, not from the text of the source: active = GI50 up to about 1.1 µM and inactive = higher.

Key:
Assay in all cases: NCI tumour cell line growth inhibition, 48 h
A498 = test system: A498
A549 = test system: A549
COLO 205 = test system: COLO 205
DMS-273 = test system: DMS-273
HCC 2998 = test system: HCC 2998
HL-60 = test system: HL-60
HOP-62 = test system: HOP-62
HOP-92 = test system: HOP-92
Malme-3M = test system: Malme-3M
NCI-H460 = test system: NCI-H460
NCI-H522 = test system: NCI-H522
SF-539 = test system: SF-539
SK-MEL-28 = test system: SK-MEL-28
U-251 = test system: U-251
UACC-257 = test system: UACC-257
UO-31 = test system: UO-31
DU-145 = test system: DU-145
Hs-578T = test system: Hs-578T

Measured: GI50

Cc1nc(-n2nc(-c3ccccc3)cc2-c2ccccc2)sc1C(=O)/C=C/c1ccc(Cl)cc1
inactive: A498 23.2 µM | A549 19.5 µM | COLO 205 16.5 µM | DMS-273 28.5 µM | HCC 2998 16.4 µM | HL-60 14.5 µM | HOP-62 13.3 µM | HOP-92 18.4 µM | Malme-3M 22.4 µM | NCI-H460 25.2 µM | NCI-H522 11.7 µM | SF-539 14.3 µM | SK-MEL-28 16.9 µM | U-251 15.8 µM | UACC-257 20.1 µM | UO-31 9.06 µM

CCCCCC1CC=CC(NC(=O)OCc2ccccc2)C1/C=C/CCCC1OCCO1 (centres undefined)
inactive: A498 17.7 µM | A549 23.3 µM | COLO 205 44.2 µM | DMS-273 36.2 µM | HCC 2998 78.3 µM | HL-60 7.93 µM | HOP-62 > 100 µM | HOP-92 > 45.7 µM | Malme-3M 50.6 µM | NCI-H460 51.6 µM | NCI-H522 20.8 µM | SF-539 > 100 µM | SK-MEL-28 > 36.5 µM | U-251 73.5 µM | UACC-257 50.7 µM | UO-31 13.1 µM

O=CC(O)C(O)C(O)COc1cc(CO)cc2c1C(=O)c1ccccc1C2=O (centres undefined)
inactive: A498 > 100 µM | A549 > 100 µM | COLO 205 > 100 µM | DMS-273 > 100 µM | HCC 2998 > 100 µM | HL-60 > 100 µM | HOP-62 > 100 µM | HOP-92 > 100 µM | Malme-3M 98.9 µM | NCI-H460 > 87.3 µM | NCI-H522 > 100 µM | SF-539 > 100 µM | SK-MEL-28 > 100 µM | U-251 > 100 µM | UACC-257 > 100 µM | UO-31 > 100 µM

CN(C)C(=N)NC(N)=S
inactive: A498 > 100 µM | A549 > 100 µM | COLO 205 > 100 µM | DMS-273 > 100 µM | HCC 2998 > 100 µM | HL-60 > 100 µM | HOP-62 > 100 µM | HOP-92 > 100 µM | Malme-3M > 100 µM | NCI-H460 > 100 µM | NCI-H522 > 100 µM | SF-539 > 100 µM | SK-MEL-28 > 100 µM | U-251 > 100 µM | UACC-257 > 100 µM | UO-31 > 100 µM

CC(=O)c1cccc(NC(=O)C(=O)NNc2nnc(S)n2N)c1
inactive: A498 20.4 µM | A549 3.75 µM | COLO 205 14.2 µM | DMS-273 5.55 µM | DU-145 6.58 µM | HCC 2998 14.1 µM | HL-60 3.18 µM | HOP-62 12.1 µM | HOP-92 13.9 µM | Hs-578T 2 µM | Malme-3M 1.93 µM | NCI-H460 4.17 µM | NCI-H522 6.37 µM | SF-539 6.18 µM | SK-MEL-28 6.89 µM | U-251 3.57 µM | UACC-257 2.75 µM | UO-31 9.16 µM

C=CCOC1=C2CC[C@H](O)[C@@]2(C)CCC1=O
inactive: A498 > 100 µM | A549 > 100 µM | COLO 205 > 100 µM | DMS-273 > 100 µM | HCC 2998 > 100 µM | HL-60 > 100 µM | HOP-62 > 100 µM | HOP-92 > 100 µM | Malme-3M > 100 µM | NCI-H460 > 100 µM | NCI-H522 > 100 µM | SF-539 > 100 µM | SK-MEL-28 > 100 µM | U-251 > 100 µM | UACC-257 > 100 µM | UO-31 > 100 µM

O=S1(=O)c2ccccc2N=C(c2ccccc2Cl)CC1c1ccc(F)cc1 (centres undefined)
inactive: A498 17.5 µM | A549 20 µM | COLO 205 21.5 µM | DMS-273 22.3 µM | HCC 2998 14.2 µM | HL-60 14.5 µM | HOP-62 > 10 µM | HOP-92 17.7 µM | Malme-3M 20 µM | NCI-H460 18.5 µM | NCI-H522 13.6 µM | SF-539 20.3 µM | SK-MEL-28 18.2 µM | U-251 15.1 µM | UACC-257 11.9 µM | UO-31 15.2 µM
